Entries after “also recorded” stand apart in the source; their conditions may differ.
Key:
[1] = system: α-actin expression in MRC-5 cells; experiment: MRC-5 fibrosis assay, TGF-β stimulated (Western blot); assay type: cell-based
Method: (§1) After 20 h growth in the reduced serum medium, the cells were treated with indicated doses of compounds for 30 minutes. Subsequently, the cells were stimulated with 10 ng/mL TGF-β (R&D Systems, 240-B-002) for 48 or 72 hours.

hDDR1 [2] = molecular target: T1, hDDR1 (Homo sapiens, UniProt Q08345); experiment: KinaseProfiler radiometric biochemical kinase assay (Eurofins); parameters: purchased Eurofins 14-942KP10; conditions: for IC50: read-out: IC50, inhibition of DDR1 activity
T1 sequence (Q08345 19-913): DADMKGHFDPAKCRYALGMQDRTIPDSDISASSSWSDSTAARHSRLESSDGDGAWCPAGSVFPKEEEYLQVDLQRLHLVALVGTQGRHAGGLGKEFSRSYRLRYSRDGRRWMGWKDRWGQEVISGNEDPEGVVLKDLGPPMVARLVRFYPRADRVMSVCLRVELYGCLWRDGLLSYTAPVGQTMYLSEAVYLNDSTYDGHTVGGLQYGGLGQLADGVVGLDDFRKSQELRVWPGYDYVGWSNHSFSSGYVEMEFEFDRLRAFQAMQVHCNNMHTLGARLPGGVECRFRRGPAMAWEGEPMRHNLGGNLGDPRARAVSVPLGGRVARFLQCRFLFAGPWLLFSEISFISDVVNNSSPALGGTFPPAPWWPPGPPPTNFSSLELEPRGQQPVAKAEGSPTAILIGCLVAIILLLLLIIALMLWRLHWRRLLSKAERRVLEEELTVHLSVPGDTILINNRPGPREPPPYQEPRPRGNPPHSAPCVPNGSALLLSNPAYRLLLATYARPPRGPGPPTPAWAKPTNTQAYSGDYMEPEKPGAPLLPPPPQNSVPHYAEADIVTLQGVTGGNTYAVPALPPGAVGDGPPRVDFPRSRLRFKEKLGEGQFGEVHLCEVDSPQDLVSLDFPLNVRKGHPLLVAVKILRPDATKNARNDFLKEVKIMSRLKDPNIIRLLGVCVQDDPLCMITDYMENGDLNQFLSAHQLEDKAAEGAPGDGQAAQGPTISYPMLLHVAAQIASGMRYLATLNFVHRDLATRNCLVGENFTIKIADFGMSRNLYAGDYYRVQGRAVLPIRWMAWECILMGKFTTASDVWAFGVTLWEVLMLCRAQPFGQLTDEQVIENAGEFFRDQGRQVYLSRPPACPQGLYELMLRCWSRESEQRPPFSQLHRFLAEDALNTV
Method: The experimental procedures were performed by Eurofins. The activity of the molecules against hDDR1 and hDDR2 kinases was assessed using KinaseProfiler^67. […] The enzymatic reaction processed in the presence of Mg^2+ cations and ATP at room temperature for 40 minutes and terminated by addition of phosphoric acid. […] All the compounds were prepared in 100% DMSO. […] The biological evaluation of selectivity against non-target kinases was performed in Dundee Eurofins, using Scan Max Delta Panel [10 μM ATP] KinaseProfiler^68.

[3] = Microsomal stability (DLM)
Method: (§2) Cold acetonitrile (ACN) including 100 ng/mL Tolbutamide and 100 ng/mL Labetalol as internal standard (IS) were used for stop solution. 10 μL compound or control working solution/well was added to all plates (T0, T5, T10, T20, T30, T60, NCF60) except matrix blank. Dispense 80 μL/well microsome solution was added to every plate by Apricot, the mixture of microsome solution and compound were incubated at 37° C. for about 10 min. After pre-warming, dispense 10 μL/well NADPH regenerating system was added to every plate by Apricot to start reaction. The solution was then incubated at 37° C. 300 (μL/well) stop solution (cold in 4° C.) was added to terminate the reaction. The sampling plates were shaken for approximately 10 min. Samples were centrifuged at 4000 rpm for 20 min under 4° C. While centrifuging, 8×new 96-well plate were loaded with 300 μL HPLC water, then 100 μL supernatant was transferred and mixed for LC/MS/MS.

[4] = Microsomal stability (MLM)
Method: as §2

[5] = system: CTGF expression in MRC-5 cells; experiment: MRC-5 fibrosis assay, TGF-β stimulated (Western blot); assay type: cell-based
Method: as §1

[6] = system: collagen α1 production in LX-2 cells; experiment: LX-2 fibrosis assay, TGF-β stimulated (Western blot); assay type: cell-based, human; conditions: 0.5 to 10 μM
Method: Collagen α1, α-SMA, CTGF and GAPDH were traced using Western blot analysis. DMSO and SB-525334 were used as negative and positive controls, respectively.
Human hepatic stellate cells LX-2 were grown in DMEM (Invitrogen, 11960) supplied with 1% MEM Non-Essential Amino Acids (Invitrogen, 11140-050), 2% fetal bovine serum (Hyclone, SV30087.03), Penicillin (100 U/mL)-streptomycin (100 μg/mL) (Millipore, TMS-AB2-C) and 2 mM L-Glutamine (Invitrogen, 25030-001). After the cells grew in 12-well plates for 24 h, the cell culture medium was changed to the same as above except using 0.4% fetal bovine serum. After 20 h growth in the reduced serum medium, the cells were treated with indicated doses of compounds for 30 minutes. Subsequently, the cells were stimulated with 4 ng/mL TGF-β (R&D Systems, 240-B-002) for 48 h. The cells were rinsed twice with DPBS before being harvested with 100 μL RIPA buffer (Sigma, R0278) supplemented with protease inhibitor cocktail (Roche, 04693132001) at 4° C. The total protein in each sample was quantified using BCA Protein Assay Kit (Pierce™, 23227) and equal amount of total protein of each sample was subject to Western blot analysis. Antibodies used were mouse anti-α-Actin (SPM332) (sc-365970), mouse anti-CTGF (E5) (sc-365970), and mouse anti-collagen al (3G3) (sc-293182), from Santa Cruz Biotechnologies; and mouse anti-GAPDH (6C5) (EMD Millipore, MAB374).

[7] = system: α-actin (α-SMA) production in LX-2 cells; experiment: as above; assay type: cell-based, human; conditions: 0.5 to 10 μM
Method: Collagen α1, α-SMA, CTGF and GAPDH were traced using Western blot analysis.
After 20 h growth in the reduced serum medium, the cells were treated with indicated doses of compounds for 30 minutes.

hDDR1 [8] = molecular target: T1, hDDR1; experiment: Rescreen in another biochemical assay (Thermo Fisher-PR6913A); conditions: read-out: IC50 towards DDR1 kinase, rescreen
Method: In the present example, six molecules were generated, selected, and synthesized and were submitted for biological testing (e.g., within 35 days). […] Since the dose-response curves for Compounds 2 and 4 seemed likely inconsistent, additional experiments were performed to confirm the activity of these molecules towards DDR1 kinase (see FIG. 4B). […] Compounds 1 and 2 were also evaluated towards DDR2 kinase.
FIGS. 4A-4B show the structures and dose-response curves for the generated molecules. The six generated compounds were tested in a dose-dependent manner against DDR1 tyrosine kinase.

SMILES: Cc1nc(Nc2ncc(C(=O)Nc3c(C)cccc3Cl)s2)cc(N2CCN(CCO)CC2)n1 [Dasatinib, dasatinib]
- concentration of maximum inhibition of α-actin expression ([1]; MRC-5): 10 µM

SMILES: O=C(CN1CCNC2(CCN(C(=O)c3ccc4[nH]ncc4c3)CC2)C1=O)Nc1cccc(F)c1 [Compound 5]
- activity against DDR1 kinase (in words) (hDDR1 [2]): inactive

SMILES: C[C@]12CC[C@H]3[C@@H](CCC4=CC(=O)CC[C@@]43C)[C@@H]1CC[C@@H]2O [Testosterone, testosterone]
- CLint scaled ([3]; Beagle, dog, microsomes): 114 mL/min/kg
- Remaining (*NCF = 60 min) ([3]; DLM 0.5, no co-factor): 88.6%
- Remaining (T = 60 min) ([3]; DLM 0.5, with NADPH): 9.5%
- Remaining (*NCF = 60 min) ([3]; HLM 0.5, no co-factor): 82.4%
- Remaining (T = 60 min) ([3]; HLM 0.5, with NADPH): 6.9%
- Remaining (T = 60 min) ([3]; HLM 0.5, with NADPH, listed as testosterone): 6.9%
- Remaining (*NCF = 60 min) ([3]; RLM 0.5, no co-factor): 86.8%
- Remaining (T = 60 min) ([3]; RLM 0.5, with NADPH): 0.0%
- CLint scaled ([3]; SD, rat, microsomes): 2360 mL/min/kg
- CLint scaled ([3]; human, microsomes): 79.7 mL/min/kg
- CLint scaled ([4]; CD-1, mouse, microsomes): 1620 mL/min/kg
- half-life ([4]; CD-1, mouse, microsomes): 3.4 min
- Remaining (*NCF = 60 min) ([4]; MLM 0.5, no co-factor): 75.4%
- Remaining (T = 60 min) ([4]; MLM 0.5, with NADPH): 0.0%

SMILES: Cc1ccc(NC(=O)CN2CCC2C(F)(F)F)cc1NC(=O)c1cnn2c1CCC2 (stereo not shown) [Compound 6]
- activity against DDR1 kinase (in words) (hDDR1 [2]): inactive; also recorded: did not demonstrate any activity

SMILES: Cc1ccc(CNC(=O)Cc2cccc(F)c2)cc1-c1ccc2[nH]ncc2c1 [Compound 3]
- IC50 (hDDR1 [2]): 1000 nM

SMILES: O=C(O)Cc1ccccc1Nc1c(Cl)cccc1Cl [Diclofenac, diclofenac]
- CLint scaled ([3]; Beagle, dog, microsomes): < 13.8 mL/min/kg
- Remaining (*NCF = 60 min) ([3]; Beagle, dog, microsomes, 1 h): 96.9%
- Remaining (T = 60 min) ([3]; Beagle, dog, microsomes, 1 h): 85.7%
- CLint scaled ([3]; SD, rat, microsomes): 106 mL/min/kg
- Remaining (*NCF = 60 min) ([3]; SD, rat, microsomes, 1 h): 89.8%
- Remaining (T = 60 min) ([3]; SD, rat, microsomes, 1 h): 17.5%
- CLint scaled ([3]; human, microsomes): 117 mL/min/kg
- Remaining (*NCF = 60 min) ([3]; human, microsomes, 1 h): 87.9%
- Remaining (*NCF = 60 min) ([4]; CD-1, mouse, microsomes, 1 h): 91.8%
- Remaining (T = 60 min) ([4]; CD-1, mouse, microsomes, 1 h): 50.2%

SMILES: Cc1cccc(-c2[nH]c(C(C)(C)C)nc2-c2ccc3nccnc3c2)n1 [SB-525334, reference compound]
- reduction in α-actin expression level ([1]; 0.5 μM, compared to TGF+DMSO stimulation): 2 fold
- concentration of maximum inhibition of α-actin expression ([1]; MRC-5): 10 µM
- dose dependence of effect on α-actin expression ([1]; MRC-5): Unclear dose-dependent effect
- effect on CTGF expression ([5]; 0.5 μM): no effect
- reduction of CTGF expression ([5]; 10 μM): 1.5 fold
- effect on collagen α1 expression [6]: strongly inhibited
- effect on α-actin expression [7]: strongly inhibited

SMILES: Cc1cc2[nH]c(-c3cc(CN(C)C)cc(C(F)(F)F)c3)nc2cc1C#Cc1cncnc1 [Compound 4]
- IC50 (hDDR1 [8]): 156 nM
- IC50 (hDDR1 [2]): 278 nM

— US12293809B2, “Workflow for generating compounds with biological activity against a specific biological target” (INSILICO MEDICINE IP LIMITED, priority 2019, dated 2025)
